Results from patent publication EP1022029A1, “NOOTROPIC AGENT” (priority 1997, dated 1999).
Where two headings read alike, the source gives them in different places.

Key:
Type in all cases: cell-based
[1] = system: postsynaptic potential of a slice of the rat hippocampus; test: Paired-pulse facilitation of the postsynaptic potential in hippocampal slices; details: nefiracetam-administered slices; interpulse intervals 50 to 150 msec
Procedure: Paired pulses were applied to slices at varying interpulse intervals, between 50 and 150 msec before and 10 minute after the administration of nefiracetam. […] Briefly, reaction induced by the first pulse application was potentiated to a maximum of 120% by the next pulse application. However, the pulses were consistently lower than those obtained with slices that had not been administered nefiracetam (Table 6); therefore, nefiracetam is considered to maximally enhance release of glutamate serving as an excitatory neurotransmitter.

α7 receptor = molecular target: T1, α7 receptor (Rattus norvegicus, UniProt Q05941); test: ACh-evoked currents in α7 receptors expressed in Xenopus oocytes (two-electrode voltage clamp); details: for normalized response (%): nef(+), n=5
T1 construct: expressed in transfected cells; host or cells: Xenopus oocytes injected with in vitro transcribed mRNA
T1 sequence (Q05941 23-502): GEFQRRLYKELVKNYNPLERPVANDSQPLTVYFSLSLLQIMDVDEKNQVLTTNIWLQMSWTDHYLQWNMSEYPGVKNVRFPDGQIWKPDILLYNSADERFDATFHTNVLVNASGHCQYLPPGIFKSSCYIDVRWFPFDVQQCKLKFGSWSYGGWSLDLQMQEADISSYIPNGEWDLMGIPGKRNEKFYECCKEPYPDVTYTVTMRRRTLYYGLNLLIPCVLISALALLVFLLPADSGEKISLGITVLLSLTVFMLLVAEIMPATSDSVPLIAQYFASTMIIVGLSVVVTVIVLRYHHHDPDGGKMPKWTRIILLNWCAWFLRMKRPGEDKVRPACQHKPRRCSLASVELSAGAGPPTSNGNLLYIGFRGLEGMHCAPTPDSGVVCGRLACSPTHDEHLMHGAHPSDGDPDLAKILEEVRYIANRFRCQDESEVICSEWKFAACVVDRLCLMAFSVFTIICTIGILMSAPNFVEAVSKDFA
Procedure: Two-electrode voltage-clamp technique was used to record expression α4β2 or α7 receptors in oocytes. […] The holding voltage was -30 or -60 mV for α4β2-nAChR or α7-nAChR, respectively. Downward directions correspond to inward currents.
mRNAs for the rat α4β2 receptor and α7 receptor, GLUR1, 2, 3 receptors, and NP152 and NP153 were constructed as described previously. Xenopus oocytes were manually separated from the ovary, and subjected to treatment with collagenase (0.5 mg/ml). Thereafter, the treated oocytes were incubated overnight in Barth's solution (in mM, 88 NaCl, 1 KCl, 2.4 NaHCO3, 0.82 MgSO4, 0.33 […], 0.41 CaCl2, and 7.5 Tris; pH 7.6). The oocytes were injected with the α4β2 or α7 receptor mRNA and incubated at 18°C. In some cases, NP152 and NP153 were co-expressed with the α4β2 and α7 receptors. The injected oocytes were incubated and transferred to a recording chamber 2-7 days after incubation and continuously superfused at room temperature (20-22°C) with a standard frog Ringer's solution [in mM: 115 NaCl, 2 KCl, 1.8 CaCl2, 5 HEPES; pH 7.0]. To remove the effect of endogenous muscarinic ACh receptor, 1 µM atropine was added to the extracellular solution. ACh-evoked currents were recorded by use of two-electrode voltage clamp techniques and an amplifier (GeneClamp-500, Axon Instrument, Inc. USA). The currents were analyzed on a microcomputer by pClamp software (Axon Instrument, Inc.; Version 6). From the results, an assessment was made as to whether nefiracetam actually acts on the nACh receptors.

[2] = system: mutant ACh receptors (mγΔPKA/Ser353,354m δΔPKA/Ser361,362) lacking PKA phosphorylation sites; test: ACh-evoked currents in mutant ACh receptors lacking PKA phosphorylation sites expressed in Xenopus oocytes; details: nefiracetam 0.01 µM; 30 min after treatment; n=7
Procedure: ACh (100 µM) was applied to each of an oocyte expressing normal ACh receptors and an oocyte expressing mutant ACh receptors (mγΔPKA/Ser353, 354m δΔPKA/Ser361,362) lacking PKA phosphorylation sites, before and after treatment with nefiracetam (0.01 µM). The oocytes expressing normal ACh receptors were treated with H-89 (1 µM) from 15 min before recording, or with pertussis toxin (0.1 µg/ml) for 24h prior to experiments. The currents illustrated in Table 16 were recorded before and 30 min after treatment with nefiracetam. The holding voltage was - 30 mV. In Table 16, each point represents the average obtained from seven oocytes.
To further examine whether the current depression by nefiracetam is due to PKA phosphorylation of the receptors or not, mutant ACh receptors lacking potent PKA phosphorylation sites on the γ and δ subunits (mγΔ PKA/Ser353,354m δΔPKA/Ser361,362) were expressed in Xenopus oocytes.

[3] = system: postsynaptic potentials evoked from the hippocampal CA1 region; test: Postsynaptic potentials recorded in the CA1 pyramidal cell layer of rat hippocampal slices
[4] = molecular target: T2, AMPA (GluR1, 2, 3) receptor (Rattus norvegicus, UniProt P19490+P19491+P19492); test: Kainate-evoked currents in GluR1, 2, 3 receptors expressed in Xenopus oocytes; details: nefiracetam 1 µM; kainate 100 µM; holding voltage -30 mV; n=5
T2 construct: expressed in transfected cells; host or cells: Xenopus oocytes injected with mRNA
T2 sequence (P19490 19-907): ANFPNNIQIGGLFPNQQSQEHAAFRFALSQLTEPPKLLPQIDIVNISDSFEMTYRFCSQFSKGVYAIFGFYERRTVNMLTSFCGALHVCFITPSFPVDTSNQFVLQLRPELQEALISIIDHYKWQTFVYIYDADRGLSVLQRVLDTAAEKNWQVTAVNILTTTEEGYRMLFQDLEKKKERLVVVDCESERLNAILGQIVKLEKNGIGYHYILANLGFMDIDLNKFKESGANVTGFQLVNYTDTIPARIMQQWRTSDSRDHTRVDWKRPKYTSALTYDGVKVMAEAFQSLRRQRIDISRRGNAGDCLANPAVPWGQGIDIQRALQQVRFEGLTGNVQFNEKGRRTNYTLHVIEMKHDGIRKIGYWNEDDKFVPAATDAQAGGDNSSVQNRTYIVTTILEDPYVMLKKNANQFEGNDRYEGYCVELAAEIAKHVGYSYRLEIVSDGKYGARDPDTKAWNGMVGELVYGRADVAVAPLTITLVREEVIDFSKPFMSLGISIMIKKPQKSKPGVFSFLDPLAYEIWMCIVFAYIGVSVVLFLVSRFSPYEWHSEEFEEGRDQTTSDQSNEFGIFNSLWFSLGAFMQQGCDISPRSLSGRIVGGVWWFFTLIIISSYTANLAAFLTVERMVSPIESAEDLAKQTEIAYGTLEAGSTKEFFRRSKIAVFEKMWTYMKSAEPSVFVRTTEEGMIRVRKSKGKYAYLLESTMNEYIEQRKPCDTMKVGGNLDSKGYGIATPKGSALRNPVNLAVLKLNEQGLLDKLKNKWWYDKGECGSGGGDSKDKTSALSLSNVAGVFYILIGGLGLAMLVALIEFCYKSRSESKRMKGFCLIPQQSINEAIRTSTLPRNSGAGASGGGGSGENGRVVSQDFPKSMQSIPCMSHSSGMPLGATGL
T2 sequence (P19491 22-883): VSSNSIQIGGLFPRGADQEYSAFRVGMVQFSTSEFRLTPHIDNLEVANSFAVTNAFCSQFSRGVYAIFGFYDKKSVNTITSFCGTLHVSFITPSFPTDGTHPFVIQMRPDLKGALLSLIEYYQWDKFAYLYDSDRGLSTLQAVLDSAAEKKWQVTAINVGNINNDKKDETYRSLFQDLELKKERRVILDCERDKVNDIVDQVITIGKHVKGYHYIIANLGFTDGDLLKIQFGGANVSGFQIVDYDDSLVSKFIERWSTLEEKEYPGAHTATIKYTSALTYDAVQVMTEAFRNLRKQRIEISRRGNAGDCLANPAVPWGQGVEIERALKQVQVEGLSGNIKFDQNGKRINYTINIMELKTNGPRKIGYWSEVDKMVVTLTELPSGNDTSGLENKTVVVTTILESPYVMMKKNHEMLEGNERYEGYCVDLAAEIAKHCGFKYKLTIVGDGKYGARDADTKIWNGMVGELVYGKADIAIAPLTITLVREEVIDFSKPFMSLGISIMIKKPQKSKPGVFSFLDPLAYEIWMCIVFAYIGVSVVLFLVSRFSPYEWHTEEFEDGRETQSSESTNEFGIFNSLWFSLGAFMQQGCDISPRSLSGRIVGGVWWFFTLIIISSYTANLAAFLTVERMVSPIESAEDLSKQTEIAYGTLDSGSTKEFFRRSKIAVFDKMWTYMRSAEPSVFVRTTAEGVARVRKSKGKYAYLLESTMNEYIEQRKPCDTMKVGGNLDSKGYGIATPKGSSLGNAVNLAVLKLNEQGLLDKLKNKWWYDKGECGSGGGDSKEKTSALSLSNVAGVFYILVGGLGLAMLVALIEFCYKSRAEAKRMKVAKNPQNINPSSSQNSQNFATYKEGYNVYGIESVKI
T2 sequence (P19492 23-888): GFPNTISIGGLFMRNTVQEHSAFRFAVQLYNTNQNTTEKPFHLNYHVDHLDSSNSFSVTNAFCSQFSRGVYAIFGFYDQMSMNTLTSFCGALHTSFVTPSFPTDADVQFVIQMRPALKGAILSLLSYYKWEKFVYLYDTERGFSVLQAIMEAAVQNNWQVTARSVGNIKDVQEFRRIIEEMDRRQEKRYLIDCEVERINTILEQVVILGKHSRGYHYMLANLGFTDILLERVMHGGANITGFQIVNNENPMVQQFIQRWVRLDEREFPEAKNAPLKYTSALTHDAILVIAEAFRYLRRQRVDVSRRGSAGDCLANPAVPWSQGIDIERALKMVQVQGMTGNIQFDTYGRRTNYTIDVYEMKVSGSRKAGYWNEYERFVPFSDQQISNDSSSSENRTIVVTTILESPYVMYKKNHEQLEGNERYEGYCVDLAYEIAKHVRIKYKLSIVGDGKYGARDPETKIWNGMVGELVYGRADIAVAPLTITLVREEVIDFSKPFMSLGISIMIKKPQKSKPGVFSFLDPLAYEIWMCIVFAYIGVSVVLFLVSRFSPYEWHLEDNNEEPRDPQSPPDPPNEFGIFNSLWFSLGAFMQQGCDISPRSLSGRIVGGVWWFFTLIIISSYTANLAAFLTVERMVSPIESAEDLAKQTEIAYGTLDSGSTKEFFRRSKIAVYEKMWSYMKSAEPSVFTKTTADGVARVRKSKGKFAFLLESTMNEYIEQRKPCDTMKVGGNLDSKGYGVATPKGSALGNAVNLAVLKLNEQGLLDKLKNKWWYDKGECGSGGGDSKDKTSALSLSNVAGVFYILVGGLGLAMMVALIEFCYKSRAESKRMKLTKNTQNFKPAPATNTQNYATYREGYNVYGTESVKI
Procedure: GluR 1, 2, 3 receptors which are AMPA receptors were expressed in Xenopus oocytes. Cell membrane currents evoked with kainate (100 µM) were recorded before and after administration of nefiracetam (1 µM) (n=5). […] The holding voltage was -30 mV. • (B): An oocyte expressing normal ACh receptors was loaded with Calcium Green. In Ca^2+-free (extCa^2+(-)) extracellular solution (extCa^2+(-)) and ordinary (i.e., Ca^2+-containing) extracellular solution, intracellular Ca^2+ ([Ca^2+]i) and Ach-evoked currents (IA) were recorded. The Ca^2+ rise was normalized by dividing "Δ increase of fluorescence intensity (DI)" by "base intensity (I)", and further by "current amplitude obtained with Ca^2+-free solution (2) (µA)". Indicated by "(1)" are currents obtained with Ca^2+-containing solution.
GluR1, 2, 3 receptors were expressed in Xenopus oocytes. Cell membrane currents evoked by kainate (100 µM) were recorded (n = 5) before and after treatment with nefiracetam (1 µM). The holding voltage was fixed at -30 mV.

Cc1cccc(C)c1NC(=O)CN1CCCC1=O [nefiracetam, 2-oxo-1-pyrrolidinylacetic acid 2,6-dimethylanilide]
paired-pulse facilitation: reaction to first pulse potentiated by the next pulse [1]: ≤ 120%
concentration of maximum potentiation of ACh-evoked currents (α7 receptor): 1 µM
activity at 1 µM (α7 receptor; 1 h, nefiracetam 1 µM, 60 minutes after treatment, read-out: ACh-evoked currents potentiated, reaching): 195%
normalized response (%) (α7 receptor; ACh 0.1 µM, nefiracetam 1 µM): 0%
normalized response (%) (α7 receptor; ACh 1 µM, nefiracetam 1 µM): 1.5%
normalized response (%) (α7 receptor; ACh 10 µM, nefiracetam 1 µM): 3%
normalized response (%) (α7 receptor; ACh 100 µM, nefiracetam 1 µM): 35%
normalized response (%) (α7 receptor; ACh 1000 µM, nefiracetam 1 µM): 100%
activity at 0.01 µM (α7 receptor; Nefiracetam 0.01 µM, n = 5 to 8, read-out: % of the original amplitude): 97.4 ± 5.5%
activity at 0.1 µM (α7 receptor; Nefiracetam 0.1 µM, n = 5 to 8, read-out: % of the original amplitude): 181 ± 10.8%
activity at 1 µM (α7 receptor; Nefiracetam 1 µM, n = 5 to 8, read-out: % of the original amplitude): 195 ± 8.8%
activity at 10 µM (α7 receptor; Nefiracetam 10 µM, n = 5 to 8, read-out: % of the original amplitude): 116 ± 7.2%
currents potentiated to (α7 receptor; in the presence of the inactive PKC inhibitory peptide (NP153; iPKCI)): 193.6%
concentration at which potentiation of ACh-evoked currents was observed (α7 receptor; lowest effective concentration): ≥ 0.01 µM
ACh-evoked currents increased to [2]: 159%
Postsynaptic potential (% of original amplitude) ([3]; Nefiracetam 0.01 µM, GF109203X(100nM), 10 min after treatment, n=5): 50 ± 5%
Postsynaptic potential (% of original amplitude) ([3]; Nefiracetam 0.01 µM, H-89(1µM), 10 min after treatment, n=5): 103 ± 8%
Postsynaptic potential (% of original amplitude) ([3]; Nefiracetam 1 µM, GF109203X(100nM), 10 min after treatment, n=5): 108.8 ± 11.6%
Postsynaptic potential (% of original amplitude) ([3]; Nefiracetam 1 µM, H-89(1µM), 10 min after treatment, n=5): 155 ± 8%
activity at 0.01 µM ([3]; Rattus norvegicus, 10 min, Nefiracetam 0.01 µM, Control (no inhibitor), 10 min after treatment, n=5, read-out: Postsynaptic potential (% of original amplitude)): 85 ± 5%
activity at 1 µM ([3]; Rattus norvegicus, 10 min, Nefiracetam 1 µM, Control (no inhibitor), 10 min after treatment, n=5, read-out: Postsynaptic potential (% of original amplitude)): 143 ± 2%
activity at 1 µM ([3]; Rattus norvegicus, 1 h, 60 minutes after the 1 µM treatment, read-out: magnitude of maximum facilitation of the postsynaptic potentials): ~150%
activity at 0.001 µM ([3]; Rattus norvegicus, nefiracetam 0.001 µM, Mean ± SD, n = 5 to 7, read-out: Postsynaptic potential (% of original amplitude)): 95 ± 6%
activity at 0.01 µM ([3]; Rattus norvegicus, nefiracetam 0.01 µM, Mean ± SD, n = 5 to 7, read-out: Postsynaptic potential (% of original amplitude)): 94 ± 5%
activity at 0.1 µM ([3]; Rattus norvegicus, nefiracetam 0.1 µM, Mean ± SD, n = 5 to 7, read-out: Postsynaptic potential (% of original amplitude)): 111 ± 9%
activity at 1 µM ([3]; Rattus norvegicus, nefiracetam 1 µM, Mean ± SD, n = 5 to 7, read-out: Postsynaptic potential (% of original amplitude)): 156 ± 6%
activity at 10 µM ([3]; Rattus norvegicus, read-out: Postsynaptic potential (% of original amplitude), nefiracetam 10 µM, Mean ± SD, n = 5 to 7): 144 ± 11%
concentrations giving short-term suppression of the postsynaptic potentials ([3]; biphasic effect, lower concentrations): ≤ 0.1 µM
effect on AMPA (GluR1, 2, 3) receptor currents (Fig. 1) [4]: never potentiated
